Data published in publication PMC9653409, “Generative deep learning enables the discovery of a potent and selective RIPK1 inhibitor” (Nature Communications, 2022).
Like-named read-outs stand apart in the source and are kept apart here.

How the values were obtained:
Assay in all cases: Kinase inhibitory activity profiling of RI-962@10 µM (406 kinases, Eurofins)
Assay type in all cases: biochemical
[1] = biological target: panel of human kinases (kinase named in endpoint) (Homo sapiens, UniProt Q8N568); conditions: 10 µM; read-out: Activity (%), DCAMKL2(h)
panel of human kinases (kinase named in endpoint) (Homo sapiens, UniProt Q8N568), sequence (Q8N568 whole entry): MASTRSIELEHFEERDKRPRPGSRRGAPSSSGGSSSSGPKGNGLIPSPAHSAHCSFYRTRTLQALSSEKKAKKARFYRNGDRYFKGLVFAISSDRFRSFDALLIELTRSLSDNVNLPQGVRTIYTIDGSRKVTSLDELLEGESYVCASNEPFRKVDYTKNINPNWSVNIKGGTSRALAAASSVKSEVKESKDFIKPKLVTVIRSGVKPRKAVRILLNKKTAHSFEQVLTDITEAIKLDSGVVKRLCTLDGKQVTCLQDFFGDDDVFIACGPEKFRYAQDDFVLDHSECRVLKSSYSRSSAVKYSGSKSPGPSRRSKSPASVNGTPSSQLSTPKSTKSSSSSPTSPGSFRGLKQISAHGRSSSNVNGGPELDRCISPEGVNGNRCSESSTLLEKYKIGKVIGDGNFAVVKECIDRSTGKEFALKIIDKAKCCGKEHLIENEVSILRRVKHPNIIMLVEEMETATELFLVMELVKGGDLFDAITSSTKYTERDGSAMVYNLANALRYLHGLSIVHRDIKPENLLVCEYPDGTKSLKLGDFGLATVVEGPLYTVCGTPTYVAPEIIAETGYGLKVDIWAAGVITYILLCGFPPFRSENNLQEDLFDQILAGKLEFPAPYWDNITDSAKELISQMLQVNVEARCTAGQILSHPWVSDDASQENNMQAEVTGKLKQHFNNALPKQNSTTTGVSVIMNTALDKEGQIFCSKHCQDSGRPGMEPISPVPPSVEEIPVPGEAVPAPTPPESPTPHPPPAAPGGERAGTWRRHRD
Description: (§1) In vitro kinase activity assays were conducted through the Kinase Profiling Services provided by Eurofins (Eurofins, France). The protocol for the RIPK1 assay is briefly described as follows (Protocols for other kinases are very similar and can be found in http://www.eurofins.com/pharmadiscovery). RIPK1 kinase was incubated with the test compound in assay buffer containing 8 mM MOPS (pH 7.0), 0.2 mM EDTA, 250 μM […], 10 mM magnesium acetate, and 10 μM [γ-33P]-ATP for 15 min at room temperature. The reaction was initiated by the addition of the Mg/ATP mixture. After incubation for 40 min at room temperature, and the reaction was stopped by the addition of 3% phosphoric acid. A 10 μL portion of the reaction mixture was then spotted onto a P30 filter mat and washed four times for 4 min in 0.425% phosphoric acid and once in methanol prior to drying and scintillation counting.

[2] = biological target: panel of human kinases (kinase named in endpoint) (Homo sapiens, UniProt Q8TDR2); conditions: 10 µM; read-out: Activity (%), CLIK1(h)
Description: as §1

[3] = biological target: panel of human kinases (kinase named in endpoint) (Homo sapiens, UniProt P53778); conditions: 10 µM; read-out: Activity (%), SAPK3(h)
Description: as §1

[4] = biological target: panel of human kinases (kinase named in endpoint) (Homo sapiens, UniProt P11362, V561M); conditions: 10 µM; read-out: Activity (%), FGFR1(V561M)(h)
panel of human kinases (kinase named in endpoint) (Homo sapiens, UniProt P11362, V561M), sequence (P11362 22-822 V561M): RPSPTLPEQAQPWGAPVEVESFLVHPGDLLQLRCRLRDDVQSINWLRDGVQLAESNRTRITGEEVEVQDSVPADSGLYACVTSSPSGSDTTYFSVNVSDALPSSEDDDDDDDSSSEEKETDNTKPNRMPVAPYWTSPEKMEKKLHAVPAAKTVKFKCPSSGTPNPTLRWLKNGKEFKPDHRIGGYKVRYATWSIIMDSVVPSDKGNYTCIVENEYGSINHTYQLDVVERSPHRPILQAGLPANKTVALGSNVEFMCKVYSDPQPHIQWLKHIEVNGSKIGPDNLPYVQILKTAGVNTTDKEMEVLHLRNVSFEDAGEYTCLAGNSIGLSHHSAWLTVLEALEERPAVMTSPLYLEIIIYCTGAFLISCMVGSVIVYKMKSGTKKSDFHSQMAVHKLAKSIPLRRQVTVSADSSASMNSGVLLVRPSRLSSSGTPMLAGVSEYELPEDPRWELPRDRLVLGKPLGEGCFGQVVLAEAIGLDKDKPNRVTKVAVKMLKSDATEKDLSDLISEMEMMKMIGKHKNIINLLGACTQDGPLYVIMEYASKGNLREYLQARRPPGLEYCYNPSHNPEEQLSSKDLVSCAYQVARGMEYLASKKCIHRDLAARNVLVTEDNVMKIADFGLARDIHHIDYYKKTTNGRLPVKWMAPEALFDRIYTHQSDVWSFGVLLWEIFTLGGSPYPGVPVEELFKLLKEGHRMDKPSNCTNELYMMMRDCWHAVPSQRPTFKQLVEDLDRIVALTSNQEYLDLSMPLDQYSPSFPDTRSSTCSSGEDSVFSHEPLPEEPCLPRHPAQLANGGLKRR
Description: as §1

[5] = biological target: panel of human kinases (kinase named in endpoint) (Homo sapiens, UniProt O94804); conditions: 10 µM; read-out: Activity (%), LOK(h)
Description: as §1

[6] = biological target: panel of human kinases (kinase named in endpoint) (Homo sapiens, UniProt P15735); conditions: 10 µM; read-out: Activity (%), PhKγ2(h)
Description: as §1

[7] = biological target: panel of human kinases (kinase named in endpoint) (Homo sapiens, UniProt P17612); conditions: 10 µM; read-out: Activity (%), PKA(h)
Description: as §1

[8] = biological target: panel of human kinases (kinase named in endpoint) (Homo sapiens, UniProt Q99755); conditions: 10 µM; read-out: Activity (%), PIP5K1a(h)
Description: as §1

[9] = biological target: panel of human kinases (kinase named in endpoint) (Homo sapiens, UniProt Q16654); conditions: 10 µM; read-out: Activity (%), PDHK4(h)
Description: as §1

[10] = biological target: panel of human kinases (kinase named in endpoint) (Homo sapiens, UniProt Q9UL54); conditions: 10 µM; read-out: Activity (%), TAO2(h)
Description: as §1

[11] = biological target: panel of human kinases (kinase named in endpoint) (Homo sapiens, UniProt Q9NYV4); conditions: 10 µM; read-out: Activity (%), CDK12/cyclinK(h)
Description: as §1

[12] = biological target: panel of human kinases (kinase named in endpoint) (Homo sapiens, UniProt P49760); conditions: 10 µM; read-out: Activity (%), CLK2(h)
Description: as §1

[13] = biological target: panel of human kinases (kinase named in endpoint) (Homo sapiens, UniProt P29597); conditions: 10 µM; read-out: Activity (%), TYK2(h)
Description: as §1

[14] = biological target: panel of human kinases (kinase named in endpoint) (Homo sapiens, UniProt Q14164); conditions: 10 µM; read-out: Activity (%), IKKε(h)
panel of human kinases (kinase named in endpoint) (Homo sapiens, UniProt Q14164), sequence (Q14164 whole entry): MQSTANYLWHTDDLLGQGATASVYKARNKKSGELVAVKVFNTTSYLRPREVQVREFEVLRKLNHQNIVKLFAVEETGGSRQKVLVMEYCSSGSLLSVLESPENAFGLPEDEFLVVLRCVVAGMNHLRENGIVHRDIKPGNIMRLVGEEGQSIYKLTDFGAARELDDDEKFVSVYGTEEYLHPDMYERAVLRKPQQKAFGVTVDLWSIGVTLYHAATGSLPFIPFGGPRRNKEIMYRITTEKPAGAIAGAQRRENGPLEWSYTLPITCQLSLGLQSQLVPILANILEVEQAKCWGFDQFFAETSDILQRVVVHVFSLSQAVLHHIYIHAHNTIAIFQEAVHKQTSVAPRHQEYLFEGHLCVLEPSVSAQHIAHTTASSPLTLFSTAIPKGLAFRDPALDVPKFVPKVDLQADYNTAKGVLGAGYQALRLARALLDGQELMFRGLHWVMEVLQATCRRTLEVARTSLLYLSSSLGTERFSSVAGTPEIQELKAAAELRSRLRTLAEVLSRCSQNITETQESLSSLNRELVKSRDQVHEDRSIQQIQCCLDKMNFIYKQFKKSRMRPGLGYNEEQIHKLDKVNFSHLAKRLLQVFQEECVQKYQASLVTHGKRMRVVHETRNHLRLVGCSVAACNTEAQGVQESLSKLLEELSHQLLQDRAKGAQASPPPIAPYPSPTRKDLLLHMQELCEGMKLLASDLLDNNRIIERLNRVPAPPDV
Description: as §1

[15] = biological target: panel of human kinases (kinase named in endpoint) (Homo sapiens, UniProt Q00535); conditions: 10 µM
panel of human kinases (kinase named in endpoint) (Homo sapiens, UniProt Q00535), sequence (Q00535 whole entry): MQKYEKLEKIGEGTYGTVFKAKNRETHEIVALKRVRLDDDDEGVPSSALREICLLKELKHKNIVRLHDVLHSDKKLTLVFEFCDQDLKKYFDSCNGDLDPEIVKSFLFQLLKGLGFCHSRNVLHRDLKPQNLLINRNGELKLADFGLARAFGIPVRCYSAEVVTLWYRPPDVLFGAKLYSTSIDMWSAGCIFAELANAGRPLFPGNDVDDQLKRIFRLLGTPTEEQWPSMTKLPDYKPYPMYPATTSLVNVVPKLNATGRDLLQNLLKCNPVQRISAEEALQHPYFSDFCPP
Description: as §1

[16] = biological target: panel of human kinases (kinase named in endpoint) (Homo sapiens, UniProt P00519, Y253F); conditions: 10 µM; read-out: Activity (%), Abl(Y253F)(h)
Description: as §1

[17] = biological target: panel of human kinases (kinase named in endpoint) (Homo sapiens, UniProt P51451); conditions: 10 µM; read-out: Activity (%), Blk(h)
Description: as §1

[18] = biological target: panel of human kinases (kinase named in endpoint) (Homo sapiens, UniProt P10398); conditions: 10 µM; read-out: Activity (%), A-Raf(h)
Description: as §1

[19] = biological target: panel of human kinases (kinase named in endpoint) (Homo sapiens, UniProt Q6DT37); conditions: 10 µM; read-out: Activity (%), MRCKγ(h)
panel of human kinases (kinase named in endpoint) (Homo sapiens, UniProt Q6DT37), sequence (Q6DT37 whole entry): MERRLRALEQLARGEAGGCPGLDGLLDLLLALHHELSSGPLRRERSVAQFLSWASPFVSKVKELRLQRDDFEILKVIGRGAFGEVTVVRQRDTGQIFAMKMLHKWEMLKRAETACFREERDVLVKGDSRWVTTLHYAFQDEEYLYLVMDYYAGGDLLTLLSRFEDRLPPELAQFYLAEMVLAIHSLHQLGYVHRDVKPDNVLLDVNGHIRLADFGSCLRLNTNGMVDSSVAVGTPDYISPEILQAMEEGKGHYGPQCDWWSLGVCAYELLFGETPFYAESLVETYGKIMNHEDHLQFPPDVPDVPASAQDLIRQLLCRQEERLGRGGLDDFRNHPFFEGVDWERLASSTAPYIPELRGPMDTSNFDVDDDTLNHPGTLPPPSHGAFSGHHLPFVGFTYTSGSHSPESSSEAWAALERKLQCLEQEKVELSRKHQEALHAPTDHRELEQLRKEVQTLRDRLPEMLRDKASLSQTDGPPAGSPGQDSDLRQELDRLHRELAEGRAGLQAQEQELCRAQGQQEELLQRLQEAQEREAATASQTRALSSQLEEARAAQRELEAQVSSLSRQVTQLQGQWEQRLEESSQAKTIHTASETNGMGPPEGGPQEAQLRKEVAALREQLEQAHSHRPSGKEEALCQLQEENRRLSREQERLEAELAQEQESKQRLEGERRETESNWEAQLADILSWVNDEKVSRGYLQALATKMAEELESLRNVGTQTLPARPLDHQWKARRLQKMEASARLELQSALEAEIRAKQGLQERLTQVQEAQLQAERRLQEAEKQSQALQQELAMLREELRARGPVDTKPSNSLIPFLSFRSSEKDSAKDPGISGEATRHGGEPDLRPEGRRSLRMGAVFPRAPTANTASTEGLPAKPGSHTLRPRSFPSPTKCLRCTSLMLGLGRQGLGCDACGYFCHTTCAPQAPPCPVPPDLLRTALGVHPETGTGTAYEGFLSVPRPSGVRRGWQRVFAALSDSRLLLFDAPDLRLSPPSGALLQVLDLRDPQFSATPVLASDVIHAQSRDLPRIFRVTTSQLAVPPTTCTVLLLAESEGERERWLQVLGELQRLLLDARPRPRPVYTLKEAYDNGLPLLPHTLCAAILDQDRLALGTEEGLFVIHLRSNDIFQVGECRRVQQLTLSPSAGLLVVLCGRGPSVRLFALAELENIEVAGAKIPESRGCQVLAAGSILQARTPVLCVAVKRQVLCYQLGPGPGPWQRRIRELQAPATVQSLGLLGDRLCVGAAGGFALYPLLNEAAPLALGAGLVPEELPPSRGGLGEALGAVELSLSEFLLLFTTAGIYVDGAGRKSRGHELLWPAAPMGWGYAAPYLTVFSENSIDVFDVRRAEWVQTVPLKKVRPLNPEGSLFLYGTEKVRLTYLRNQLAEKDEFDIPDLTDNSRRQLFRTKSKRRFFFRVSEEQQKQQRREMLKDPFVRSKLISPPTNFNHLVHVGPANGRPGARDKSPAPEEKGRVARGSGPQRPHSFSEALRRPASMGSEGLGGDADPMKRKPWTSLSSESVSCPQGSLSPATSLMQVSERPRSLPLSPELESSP
Description: as §1

[20] = biological target: panel of human kinases (kinase named in endpoint) (Homo sapiens, UniProt P16234); conditions: 10 µM; read-out: Activity (%), PDGFRα(h)
Description: as §1

[21] = biological target: panel of human kinases (kinase named in endpoint) (Homo sapiens, UniProt Q6P2M8); conditions: 10 µM; read-out: Activity (%), CaMKIß(h)
panel of human kinases (kinase named in endpoint) (Homo sapiens, UniProt Q6P2M8), sequence (Q6P2M8 whole entry): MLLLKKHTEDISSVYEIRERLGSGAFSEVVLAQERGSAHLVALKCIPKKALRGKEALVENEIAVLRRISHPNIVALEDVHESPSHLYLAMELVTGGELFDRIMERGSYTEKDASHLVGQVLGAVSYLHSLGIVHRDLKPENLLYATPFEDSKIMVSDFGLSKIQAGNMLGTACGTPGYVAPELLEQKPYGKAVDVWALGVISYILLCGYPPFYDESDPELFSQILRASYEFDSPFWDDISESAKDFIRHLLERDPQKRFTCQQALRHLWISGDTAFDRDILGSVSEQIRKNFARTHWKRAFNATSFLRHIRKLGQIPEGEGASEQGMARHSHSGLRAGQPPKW
Description: as §1

[22] = biological target: panel of human kinases (kinase named in endpoint) (Homo sapiens, UniProt P23443); conditions: 10 µM; read-out: Activity (%), p70S6K(h)
Description: as §1

[23] = biological target: panel of human kinases (kinase named in endpoint) (Homo sapiens, UniProt Q9H1R3); conditions: 10 µM; read-out: Activity (%), MYLK2(h)
panel of human kinases (kinase named in endpoint) (Homo sapiens, UniProt Q9H1R3), sequence (Q9H1R3 whole entry): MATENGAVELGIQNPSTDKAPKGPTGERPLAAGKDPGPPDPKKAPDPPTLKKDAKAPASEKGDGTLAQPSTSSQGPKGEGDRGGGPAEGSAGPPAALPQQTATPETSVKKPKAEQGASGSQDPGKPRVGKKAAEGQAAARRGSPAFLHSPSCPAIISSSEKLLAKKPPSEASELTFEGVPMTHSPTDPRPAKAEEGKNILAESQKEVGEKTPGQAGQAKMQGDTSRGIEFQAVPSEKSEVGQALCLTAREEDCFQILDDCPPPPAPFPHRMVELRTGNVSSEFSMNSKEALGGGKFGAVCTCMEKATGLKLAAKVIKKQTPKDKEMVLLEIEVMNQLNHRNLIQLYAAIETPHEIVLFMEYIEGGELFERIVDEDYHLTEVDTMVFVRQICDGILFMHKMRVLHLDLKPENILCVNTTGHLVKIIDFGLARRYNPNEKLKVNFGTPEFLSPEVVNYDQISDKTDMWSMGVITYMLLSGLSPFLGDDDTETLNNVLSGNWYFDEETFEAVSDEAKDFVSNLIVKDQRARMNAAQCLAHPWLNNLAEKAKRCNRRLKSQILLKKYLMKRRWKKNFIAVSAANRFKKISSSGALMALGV
Description: as §1

[24] = biological target: panel of human kinases (kinase named in endpoint) (Homo sapiens, UniProt P10721, V654A); conditions: 10 µM; read-out: Activity (%), cKit(V654A)(h)
Description: as §1

[25] = biological target: panel of human kinases (kinase named in endpoint) (Homo sapiens, UniProt Q15835); conditions: 10 µM; read-out: Activity (%), GRK1(h)
Description: as §1

**Q.** How did the activity at 10 µM [1] turn out when `CC(C)C(=O)Nc1nc2cc(-c3ccc4c(c3)c(C(=O)NC(C)c3ccccc3)cn4C)ccn2n1` (centres unmarked) [RI-962] was run?
**A.** The activity at 10 µM was 132%.

**Q.** What about the activity at 10 µM [2] of the same compound?
**A.** Its activity at 10 µM is 132%.

**Q.** And the activity at 10 µM [3]?
**A.** Its activity at 10 µM is 100%.

**Q.** And the activity at 10 µM [4]?
**A.** Its activity at 10 µM is 99%.

**Q.** What about the activity at 10 µM [5] of the same compound?
**A.** The activity at 10 µM was 108%.

**Q.** What about the activity at 10 µM [6] of the same compound?
**A.** Its activity at 10 µM is 93%.

**Q.** And the activity at 10 µM [7]?
**A.** The activity at 10 µM was 97%.

**Q.** And the activity at 10 µM [8]?
**A.** The activity at 10 µM was 106%.

**Q.** What about the activity at 10 µM [9] of the same compound?
**A.** Its activity at 10 µM is 75%.

**Q.** What about the activity at 10 µM [10] of the same compound?
**A.** The activity at 10 µM was 92%.

**Q.** And the activity at 10 µM [11]?
**A.** The activity at 10 µM was 117%.

**Q.** What about the activity at 10 µM [12] of the same compound?
**A.** Its activity at 10 µM is 94%.

**Q.** What about the activity at 10 µM [13] of the same compound?
**A.** The activity at 10 µM was 113%.

**Q.** What about the activity at 10 µM [14] of the same compound?
**A.** The activity at 10 µM was 103%.

**Q.** And the activity at 10 µM ([15]; read-out: Activity (%), CDK5/p25(h))?
**A.** Its activity at 10 µM is 92%.

**Q.** And the activity at 10 µM ([15]; read-out: Activity (%), CDK5/p35(h))?
**A.** The activity at 10 µM was 118%.

**Q.** What about the activity at 10 µM [16] of the same compound?
**A.** Its activity at 10 µM is 102%.

**Q.** And the activity at 10 µM [17]?
**A.** Its activity at 10 µM is 96%.

**Q.** And the activity at 10 µM [18]?
**A.** Its activity at 10 µM is 80%.

**Q.** And the activity at 10 µM [19]?
**A.** The activity at 10 µM was 83%.

**Q.** And the activity at 10 µM [20]?
**A.** Its activity at 10 µM is 99%.

**Q.** And the activity at 10 µM [21]?
**A.** Its activity at 10 µM is 100%.

**Q.** And the activity at 10 µM [22]?
**A.** Its activity at 10 µM is 106%.

**Q.** What about the activity at 10 µM [23] of the same compound?
**A.** The activity at 10 µM was 86%.

**Q.** And the activity at 10 µM [24]?
**A.** Its activity at 10 µM is 85%.

**Q.** And the activity at 10 µM [25]?
**A.** The activity at 10 µM was 111%.
